Measured values reported in EP0326579B1, “IMPROVEMENT OF THE BIOCOMPATIBILITY OF SOLID SURFACES” (BIO-METRIC SYSTEMS, INC., priority 1986, dated 1988).

Assays:
Bovine endothelial cells [1] = assay: Outgrowth measurement using endothelial cells from a point of origin; assay type: cell-based; settings: treated polyvinyl chloride surface
Bovine endothelial cells [2] = assay: Attachment of endothelial cells to modified plastic surfaces (viable cell counts, trypan blue); assay type: cell-based; settings: treated polyvinyl chloride surface; number of viable cells attached to each piece
Protocol: B. Attachment of Bovine Endothelial Cells to Modified Plastic Surfaces. Bovine endothelial cells were collected from fetal animals 8-24" in length. Cornea, aorta and umbilical endothelial cells were harvested aseptically. Cells were grown in a 5% CO₂ incubator at 37°C in a known high glucose cell growth medium such as Dulbecco's modified Eagle's medium (described in R. Dulbecco and G. Freeman, Virology, Vol. 8:396 (1959) and J. D. Smith, G. Freeman, M. Vogt and R. Dulbecco, Virology, Vol. 12:185-196 (1960)) with 25mmole HEPES buffer, 10% bovine calf serum, and 2.5 micrograms amphotericin B/ml (the "growth media"). Once the plates, tubes or sheets were prepared; cell cultures were prepared from primary cell lines. The cells were detached from the cell culture surface with a 0.25% solution of trypsin and resuspended in the growth media. Cells were then counted using a trypan blue (0.4%) solution and a hemocytometer. Various concentrations of cells were layered on the prepared materials. Cell attachment was monitored for various time periods from 5 minutes to 14 days. Attachments were determined by at least two methods. In one, sample materials were removed from culture media and washed 2 times with sterile saline. Cell stains were then applied and total cells on the surface were counted. A second method was to trypsinize the cells off the surface with a trypsin solution and count using the trypan blue method. Representive results of the attachment and outgrowth of endothelial cells on precoated polyvinyl chloride plastic pieces are reported in Table 3. The number of viable cells attached to each piece were determined by trypan blue staining procedures.

Row | Substance | 7-day outgrowth (Bovine endothelial cells [1]) | 3-day cell counts (Bovine endothelial cells [2]) | 7-day cell counts (Bovine endothelial cells [2])
1 | ANP-EAC-COL: Human placenta Type IV collagen coupled to ANP-EAC-NOS (photolabeled collagen) | 1.0-3.0 mm | 14500 | 15833
2 | BBA-COL: Human placenta Type IV collagen coupled to the NOS ester of benzoylbenzoic acid | 2.5-4.0 mm | 5749 | 21500
